Test results from paper PMC8890504, “Evolution of Brain-Expressed Biogenic Amine Receptors into Olfactory Trace Amine-Associated Receptors” (Molecular Biology and Evolution, 2022).
Values joined by “and” are separate entries in the source; they are usually repeats but may differ in a detail not shown here. Equal values may be shown once.

Tests used:
mouse TAAR8a = molecular target: T1, mouse TAAR8a (Mus musculus, UniProt Q5QD07); assay: Cell-based receptor activation reporter assay (SEAP / Dual-Glo luciferase)
T1 construct: bovine rhodopsin N-terminal 20 amino acids (Rho tag); expressed in transfected cells; host or cells: HEK293(T) (SEAP assay) or Hana3A (Dual-Glo assay)
Description: (§1) Fluorescence was measured with a BioTek Microplate reader.

catfish TAAR13f = catfish TAAR13f (Ictalurus punctatus, UniProt A0A2D0SGW4); assay: as above
catfish TAAR13f, sequence (A0A2D0SGW4 entry or part of it): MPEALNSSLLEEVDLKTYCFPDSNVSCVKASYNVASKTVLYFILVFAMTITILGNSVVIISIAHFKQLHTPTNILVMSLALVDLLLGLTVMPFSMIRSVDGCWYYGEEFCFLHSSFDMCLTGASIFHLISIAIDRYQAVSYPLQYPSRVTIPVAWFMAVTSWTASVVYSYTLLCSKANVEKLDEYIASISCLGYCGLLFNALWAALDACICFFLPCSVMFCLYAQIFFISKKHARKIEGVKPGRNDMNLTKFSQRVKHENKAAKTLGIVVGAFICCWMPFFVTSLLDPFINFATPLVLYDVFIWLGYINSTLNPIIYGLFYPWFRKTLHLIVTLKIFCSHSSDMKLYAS
Description: as §1

catfish TAAR13h = catfish TAAR13h (Ictalurus punctatus, UniProt A0A2D0SG84); assay: as above
Description: as §1

shark TARL2 = shark TARL2 (Chiloscyllium punctatum, UniProt A0A401SGR3); assay: as above; design: species or system bamboo shark
Description: as §1

TARLL1b = TARLL1b (Petromyzon marinus, UniProt A0AAJ7TCG4); assay: as above; design: species or system sea lamprey; conditions: TARLL1b
Description: as §1

mouse TAAR1 = mouse TAAR1 (Mus musculus, UniProt Q923Y8); assay: cell-based; conditions: mTAAR1
Description: (§2) Next, we conducted high-throughput screening to further explore the functional properties of these aminergic receptors. We cloned 248 TAARs from 11 mammals (human, mouse, rat, guinea pig, hamster, cat, horse, rabbit, sheep, rhesus, and wild boar), two reptiles (alligator and chicken), six teleosts (zebrafish, catfish, fugu, medaka, salmon, and pufferfish), one lobed-finned fish (coelacanth), one holost fish (spotted gar), and one cartilaginous fish (bamboo shark) (fig. 2A). We also cloned eight TARLs from coelacanth, zebrafish, catfish, fugu, medaka, spotted gar, shark, and 28 TARLLs from sea lamprey (supplementary table S2, Supplementary Material online). In addition, we cloned two HTR4s from mouse and zebrafish. We then challenged all of the cloned receptors with a ligand library comprised 97 amines at 100 µM.
We then compared the responses of HTR4 from mouse and zebrafish, TARL1 from zebrafish, catfish, fugu, medaka, spotted gar, and coelacanth, TARL2 from coelacanth and shark, TAAR1 from mouse and zebrafish to the 16 ligands at 10 µM (fig. 5B).
(§3) HEK293 cells were plated onto poly-D-lysine (Sigma–Aldrich) preincubated 96-well plates (Corning) with 50 µl growth medium (DMEM medium with 10% BCS and 5% penicillin–streptomycin solution) and cultured for 18–24 h. Receptor plasmids were cotransfected with Cre-SEAP plasmid using polyethylenimine (PEI, Polysciences) and incubated at 37 °C with 5% CO2. About 4 h later, cells were incubated with or without test compounds diluted in serum-free DMEM for 48 h, followed by incubating for 2 h at 70 °C. After returning to room temperature, 50 µl supernatant from each well was incubated with an equal volume of 0.3 mM 4-methylumbelliferyl phosphate (4-MUP, Sigma–Aldrich) in 2 M diethanolamine bicarbonate (Sigma–Aldrich), pH 10.0 for 15 min. Fluorescence was measured with a BioTek Microplate reader.
(§4) Hana3A cells were plated onto 96-well plates (Greiner bio-one) with 50 µl growth medium (DMEM medium with 10% BCS and 5% penicillin–streptomycin solution with puromycin) and cultured at 37 °C with 5% CO2. After 18–24 h, cells in each well were cotransfected with 50 ng receptor plasmid, 10 ng CRE-Luc, 10 ng pRL-SV40, and 10 ng mRTPs using Lipofectamine 2000 (Invitrogen), and incubated for 18 h. Medium was then replaced by 25 µl CD293 (Invitrogen) containing 1% glutamine with or without test compounds for 4 h. The chemiluminescence of firefly luciferase and renilla luciferase were measured with a Biotek Microplate reader using the Dual-Glo Luciferase Assay System (Promega).

(UniProt Z9G6W3R3V9) = assay: Cell-based receptor activation reporter assay (SEAP / Dual-Glo luciferase); conditions: coelacanth TARL1
Description: as §1

catfish TAAR13g = catfish TAAR13g (Ictalurus punctatus, UniProt A0A2D0SG81); assay: as above
catfish TAAR13g, sequence (A0A2D0SG81 entry or part of it): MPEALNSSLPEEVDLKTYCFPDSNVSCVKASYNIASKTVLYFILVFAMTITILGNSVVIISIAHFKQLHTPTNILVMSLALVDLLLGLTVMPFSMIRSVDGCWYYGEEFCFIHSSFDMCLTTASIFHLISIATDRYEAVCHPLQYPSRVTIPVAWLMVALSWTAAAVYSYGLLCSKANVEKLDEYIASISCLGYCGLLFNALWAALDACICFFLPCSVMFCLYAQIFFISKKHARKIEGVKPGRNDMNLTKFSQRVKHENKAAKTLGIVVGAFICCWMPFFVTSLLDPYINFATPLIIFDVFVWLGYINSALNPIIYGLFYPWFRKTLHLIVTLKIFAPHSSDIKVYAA
Description: as §1

coelacanth TAARC1b = coelacanth TAARC1b (Latimeria chalumnae, UniProt H3A8V0); assay: as above
Description: as §1

coelacanth TARL2 = coelacanth TARL2 (Latimeria chalumnae, UniProt H3AWX3); assay: as above
Description: as §1

spotted gar TARL1 = spotted gar TARL1 (Lepisosteus oculatus, UniProt W5NNR6); assay: as above
Description: as §1

zebrafish TAAR1 = zebrafish TAAR1 (Danio rerio, UniProt Q5QNN1); assay: as above; conditions: zTAAR1
Description: as §1

zebrafish TARL1 = zebrafish TARL1 (Danio rerio, UniProt A0A8M1Q794); assay: as above
Description: as §1

mouse HTR4 = mouse HTR4 (Mus musculus, UniProt P97288); assay: cell-based
Description: as §2, §3, §4

TARL1 = assay: Response to 16 ligands at 10 µM, luciferase assay; format: cell-based; conditions: fig. 5B
Description: (§5) Ligand profiles and expression patterns of HTR4, TARL, and TAAR1. (A) qPCR analysis of different receptors in zebrafish tissues. Gapdh serves as a control. (B) Response of HTR4, TARL, TAARC1, and TAAR1 to 16 ligands at 10 μM. The heatmap is based on the ratio of fluorescence intensity of ligand–receptor interaction and no ligand controls in the luciferase assay. […] (C) PhyloPCA analysis on the responses of HTR4, TARL, TAARC1, and TAAR1 to these 16 ligands. […] Dots colored by receptor clades represent the ligand responses of receptors on the first two PC axes. Ligand eigenvectors are represented by lines and colored according to the ligand clusters. A ligand name is shown at the tip of the line if its eigenvector has a higher contribution (compared with other ligands) to either PC1 or PC2. […] (D) The presence of HTR4, TARL1, TARL2, and TAAR1 in several representative species in vertebrates is plotted. […]
(§6) Hana3A cells were plated onto 96-well plates (Greiner bio-one) with 50 µl growth medium (DMEM medium with 10% BCS and 5% penicillin–streptomycin solution with puromycin) and cultured at 37 °C with 5% CO2. […] The chemiluminescence of firefly luciferase and renilla luciferase were measured with a Biotek Microplate reader using the Dual-Glo Luciferase Assay System (Promega).

cat TAAR4 = cat TAAR4 (Felis catus, UniProt A0ABI7X9K0); assay: Cell-based receptor activation reporter assay (SEAP / Dual-Glo luciferase)
cat TAAR4, sequence (A0ABI7X9K0 entry or part of it): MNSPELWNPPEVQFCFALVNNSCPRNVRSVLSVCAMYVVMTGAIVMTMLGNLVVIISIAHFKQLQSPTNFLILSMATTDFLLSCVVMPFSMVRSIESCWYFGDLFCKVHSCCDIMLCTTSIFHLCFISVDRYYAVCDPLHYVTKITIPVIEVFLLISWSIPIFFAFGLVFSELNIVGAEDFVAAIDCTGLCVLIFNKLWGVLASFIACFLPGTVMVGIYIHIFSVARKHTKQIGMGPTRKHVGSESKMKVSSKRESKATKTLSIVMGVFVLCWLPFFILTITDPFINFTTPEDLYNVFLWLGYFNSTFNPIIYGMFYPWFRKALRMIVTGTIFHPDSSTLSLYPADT
Description: as §1

cow TAAR4 = cow TAAR4 (Bos taurus, UniProt F1MNY9); assay: as above
Description: as §1

guinea pig TAAR4 = guinea pig TAAR4 (Cavia porcellus, UniProt H0W119); assay: as above
guinea pig TAAR4, sequence (H0W119 entry or part of it): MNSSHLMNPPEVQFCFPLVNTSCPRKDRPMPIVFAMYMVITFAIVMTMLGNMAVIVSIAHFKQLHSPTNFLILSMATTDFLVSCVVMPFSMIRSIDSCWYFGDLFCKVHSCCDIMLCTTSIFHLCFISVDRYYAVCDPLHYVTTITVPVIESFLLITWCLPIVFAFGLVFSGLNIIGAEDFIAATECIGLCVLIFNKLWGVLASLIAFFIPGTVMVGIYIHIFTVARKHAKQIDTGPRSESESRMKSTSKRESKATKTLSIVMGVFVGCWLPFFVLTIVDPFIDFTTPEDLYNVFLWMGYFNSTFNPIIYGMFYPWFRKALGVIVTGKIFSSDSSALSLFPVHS
Description: as §1

hamster TAAR4 = hamster TAAR4 (Mesocricetus auratus, UniProt A0A1U7Q3I9); assay: as above
hamster TAAR4, sequence (A0A1U7Q3I9 entry or part of it): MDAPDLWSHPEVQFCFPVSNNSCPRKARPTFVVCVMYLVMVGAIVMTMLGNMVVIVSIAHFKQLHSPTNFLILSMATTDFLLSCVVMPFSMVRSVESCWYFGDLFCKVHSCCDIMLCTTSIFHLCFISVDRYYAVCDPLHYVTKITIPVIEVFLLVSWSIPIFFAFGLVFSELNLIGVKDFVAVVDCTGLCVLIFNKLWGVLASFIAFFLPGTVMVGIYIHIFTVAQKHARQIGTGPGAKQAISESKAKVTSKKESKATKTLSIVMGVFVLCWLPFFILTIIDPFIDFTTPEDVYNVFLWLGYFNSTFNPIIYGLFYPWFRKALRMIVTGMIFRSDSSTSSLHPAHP
Description: as §1

horse TAAR4 = horse TAAR4 (Equus caballus, UniProt F7BPI5); assay: as above
horse TAAR4, sequence (F7BPI5 entry or part of it): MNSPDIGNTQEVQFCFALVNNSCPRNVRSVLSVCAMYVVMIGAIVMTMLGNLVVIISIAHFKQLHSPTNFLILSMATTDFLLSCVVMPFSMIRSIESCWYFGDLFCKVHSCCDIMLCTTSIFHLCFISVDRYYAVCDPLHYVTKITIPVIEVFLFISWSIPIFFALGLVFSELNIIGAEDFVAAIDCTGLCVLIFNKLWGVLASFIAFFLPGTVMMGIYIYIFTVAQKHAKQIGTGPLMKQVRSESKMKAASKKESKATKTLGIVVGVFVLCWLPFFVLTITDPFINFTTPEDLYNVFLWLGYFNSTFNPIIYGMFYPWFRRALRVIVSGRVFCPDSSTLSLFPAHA
Description: as §1

zebrafish TAAR12j = zebrafish TAAR12j (Danio rerio, UniProt Q5QNN7); assay: as above
Description: as §1

TARL2 = assay: Response to 16 ligands at 10 µM, luciferase assay; format: cell-based, coelacanth and shark; conditions: fig. 5B
Description: as §5, §6

medaka TAAR21f = assay: Cell-based receptor activation reporter assay (SEAP / Dual-Glo luciferase)
Description: as §1

spotted gar TAAR1b = spotted gar TAAR1b (Lepisosteus oculatus, UniProt W5NMY1); assay: as above
Description: as §1

shark TAARS1b = shark TAARS1b (Chiloscyllium punctatum, UniProt A0A401S5C1); assay: as above; design: species or system bamboo shark
shark TAARS1b, sequence (A0A401S5C1 entry or part of it): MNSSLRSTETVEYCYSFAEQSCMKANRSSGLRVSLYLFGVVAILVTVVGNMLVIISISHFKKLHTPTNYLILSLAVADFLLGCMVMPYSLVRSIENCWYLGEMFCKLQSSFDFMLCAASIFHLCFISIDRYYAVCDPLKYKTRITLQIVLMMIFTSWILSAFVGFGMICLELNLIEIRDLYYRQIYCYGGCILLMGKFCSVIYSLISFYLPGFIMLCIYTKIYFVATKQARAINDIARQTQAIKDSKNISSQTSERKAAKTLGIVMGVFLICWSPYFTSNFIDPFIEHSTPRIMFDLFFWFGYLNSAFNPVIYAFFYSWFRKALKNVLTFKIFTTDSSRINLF
Description: as §1

cat TAAR5 = cat TAAR5 (Felis catus, UniProt A0ABI7YAE2); assay: as above
Description: as §1

sheep TAAR5 = sheep TAAR5 (Ovis aries, UniProt A0ACI6PZ16); assay: as above
sheep TAAR5, sequence (A0ACI6PZ16 entry or part of it): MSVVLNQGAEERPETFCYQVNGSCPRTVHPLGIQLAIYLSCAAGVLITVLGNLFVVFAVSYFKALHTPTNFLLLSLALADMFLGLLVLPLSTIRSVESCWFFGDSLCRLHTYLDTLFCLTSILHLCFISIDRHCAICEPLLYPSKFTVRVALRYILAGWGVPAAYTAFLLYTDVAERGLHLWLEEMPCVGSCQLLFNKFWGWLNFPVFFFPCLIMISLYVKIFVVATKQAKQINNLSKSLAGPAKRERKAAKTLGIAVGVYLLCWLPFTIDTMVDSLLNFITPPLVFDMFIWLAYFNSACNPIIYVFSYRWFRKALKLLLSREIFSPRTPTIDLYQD
Description: as §1

cow TAAR5 = cow TAAR5 (Bos taurus, UniProt F1MTC9); assay: cell-based; conditions: EC50 (μM)
cow TAAR5, sequence (F1MTC9 entry or part of it): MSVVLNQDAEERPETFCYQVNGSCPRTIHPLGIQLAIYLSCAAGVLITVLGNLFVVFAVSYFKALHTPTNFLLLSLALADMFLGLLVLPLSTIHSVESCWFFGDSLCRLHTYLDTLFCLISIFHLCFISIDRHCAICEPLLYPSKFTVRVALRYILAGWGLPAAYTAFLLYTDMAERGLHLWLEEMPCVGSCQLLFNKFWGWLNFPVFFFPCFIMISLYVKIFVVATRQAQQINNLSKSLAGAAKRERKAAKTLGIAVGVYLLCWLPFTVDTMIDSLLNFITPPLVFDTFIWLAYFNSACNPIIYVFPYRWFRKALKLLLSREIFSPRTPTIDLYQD
Description: as §2, §3, §4

hamster TAAR5 = hamster TAAR5 (Mesocricetus auratus, UniProt A0A1U7QEC3); assay: cell-based
hamster TAAR5, sequence (A0A1U7QEC3 entry or part of it): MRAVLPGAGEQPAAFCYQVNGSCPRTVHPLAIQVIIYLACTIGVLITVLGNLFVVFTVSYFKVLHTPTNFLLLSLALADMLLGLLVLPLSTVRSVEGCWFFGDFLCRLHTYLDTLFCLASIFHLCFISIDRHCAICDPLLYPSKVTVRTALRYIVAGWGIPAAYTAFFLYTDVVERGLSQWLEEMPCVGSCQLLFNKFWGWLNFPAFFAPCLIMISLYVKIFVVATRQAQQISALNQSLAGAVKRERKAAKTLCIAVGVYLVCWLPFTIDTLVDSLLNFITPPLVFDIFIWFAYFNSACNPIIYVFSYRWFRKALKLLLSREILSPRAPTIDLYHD
Description: as §2, §3, §4

mouse TAAR5 = molecular target: T2, mouse TAAR5 (Mus musculus, UniProt Q5QD14); assay: Cell-based receptor activation reporter assay (SEAP / Dual-Glo luciferase)
T2 construct: bovine rhodopsin N-terminal 20 amino acids (Rho tag); expressed in transfected cells; host or cells: HEK293(T) (SEAP assay) or Hana3A (Dual-Glo assay)
Description: as §1

mouse TAAR8c = molecular target: T3, mouse TAAR8c (Mus musculus, UniProt Q5QD05); assay: as above
T3 construct: bovine rhodopsin N-terminal 20 amino acids (Rho tag); expressed in transfected cells; host or cells: HEK293(T) (SEAP assay) or Hana3A (Dual-Glo assay)
Description: as §1

cat TAAR6b = cat TAAR6b (Felis catus, UniProt A0ABI7X994); assay: as above
Description: as §1

mouse TAAR6 = molecular target: T4, mouse TAAR6 (Mus musculus, UniProt Q5QD13); assay: as above
T4 construct: bovine rhodopsin N-terminal 20 amino acids (Rho tag); expressed in transfected cells; host or cells: HEK293(T) (SEAP assay) or Hana3A (Dual-Glo assay)
Description: as §1

mouse TAAR7d = molecular target: T5, mouse TAAR7d (Mus musculus, UniProt Q5QD10); assay: as above
T5 construct: bovine rhodopsin N-terminal 20 amino acids (Rho tag); expressed in transfected cells; host or cells: HEK293(T) (SEAP assay) or Hana3A (Dual-Glo assay)
T5 sequence (Q5QD10 whole entry): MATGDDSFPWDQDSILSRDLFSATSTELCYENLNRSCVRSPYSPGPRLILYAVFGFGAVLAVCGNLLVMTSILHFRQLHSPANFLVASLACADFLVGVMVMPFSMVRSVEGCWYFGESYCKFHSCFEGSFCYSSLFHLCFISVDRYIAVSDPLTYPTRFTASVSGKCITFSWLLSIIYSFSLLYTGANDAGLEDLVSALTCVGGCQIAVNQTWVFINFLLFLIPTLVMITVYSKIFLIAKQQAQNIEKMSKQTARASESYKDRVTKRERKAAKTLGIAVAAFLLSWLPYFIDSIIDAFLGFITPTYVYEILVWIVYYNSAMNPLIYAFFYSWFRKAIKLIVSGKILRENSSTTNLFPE
Description: as §1

rabbit TAAR8b = rabbit TAAR8b (Oryctolagus cuniculus, UniProt G1SRV7); assay: as above
rabbit TAAR8b, sequence (G1SRV7 entry or part of it): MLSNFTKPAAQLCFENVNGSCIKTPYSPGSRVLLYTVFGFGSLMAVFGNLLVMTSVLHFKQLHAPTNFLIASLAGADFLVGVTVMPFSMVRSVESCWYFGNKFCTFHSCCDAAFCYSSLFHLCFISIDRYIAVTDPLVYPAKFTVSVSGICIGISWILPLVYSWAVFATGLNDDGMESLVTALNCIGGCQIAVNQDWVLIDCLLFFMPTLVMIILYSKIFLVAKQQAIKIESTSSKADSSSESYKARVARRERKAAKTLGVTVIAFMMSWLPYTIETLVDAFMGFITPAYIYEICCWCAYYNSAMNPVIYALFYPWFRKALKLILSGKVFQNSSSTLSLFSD
Description: as §1

rat TAAR6 = molecular target: T6, rat TAAR6 (Rattus norvegicus, UniProt Q923Y5); assay: as above
T6 construct: bovine rhodopsin N-terminal 20 amino acids (Rho tag); expressed in transfected cells; host or cells: HEK293(T) (SEAP assay) or Hana3A (Dual-Glo assay)
Description: as §1

rat TAAR7a = molecular target: T7, rat TAAR7a (Rattus norvegicus, UniProt Q923Y2); assay: as above
T7 construct: bovine rhodopsin N-terminal 20 amino acids (Rho tag); expressed in transfected cells; host or cells: HEK293(T) (SEAP assay) or Hana3A (Dual-Glo assay)
T7 sequence (Q923Y2 whole entry): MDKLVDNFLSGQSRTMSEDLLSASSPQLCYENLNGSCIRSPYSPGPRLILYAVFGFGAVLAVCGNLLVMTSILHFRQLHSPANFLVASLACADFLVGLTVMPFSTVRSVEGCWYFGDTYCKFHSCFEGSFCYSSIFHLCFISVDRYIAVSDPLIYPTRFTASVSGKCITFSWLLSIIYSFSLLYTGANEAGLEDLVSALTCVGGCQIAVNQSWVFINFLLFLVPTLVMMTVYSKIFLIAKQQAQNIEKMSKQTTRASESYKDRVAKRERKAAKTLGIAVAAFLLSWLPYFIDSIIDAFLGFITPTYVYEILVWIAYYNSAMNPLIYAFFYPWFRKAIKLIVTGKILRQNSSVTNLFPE
Description: as §1

rat TAAR8a = molecular target: T8, rat TAAR8a (Rattus norvegicus, UniProt Q923X9); assay: as above
T8 construct: bovine rhodopsin N-terminal 20 amino acids (Rho tag); expressed in transfected cells; host or cells: HEK293(T) (SEAP assay) or Hana3A (Dual-Glo assay)
Description: as §1

rat TAAR9 = molecular target: T9, rat TAAR9 (Rattus norvegicus, UniProt Q923Y6); assay: as above
T9 construct: bovine rhodopsin N-terminal 20 amino acids (Rho tag); expressed in transfected cells; host or cells: HEK293(T) (SEAP assay) or Hana3A (Dual-Glo assay)
T9 sequence (Q923Y6 1-338): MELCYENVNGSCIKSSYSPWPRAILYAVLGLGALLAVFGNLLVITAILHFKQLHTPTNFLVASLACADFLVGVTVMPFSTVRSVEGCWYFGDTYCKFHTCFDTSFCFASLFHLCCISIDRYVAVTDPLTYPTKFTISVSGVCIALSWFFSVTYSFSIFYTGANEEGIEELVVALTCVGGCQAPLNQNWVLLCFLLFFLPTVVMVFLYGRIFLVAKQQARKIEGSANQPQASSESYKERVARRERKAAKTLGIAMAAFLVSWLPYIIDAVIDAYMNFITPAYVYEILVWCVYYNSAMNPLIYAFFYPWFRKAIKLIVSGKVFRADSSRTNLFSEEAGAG
Description: as §1

wild boar TAAR7 = wild boar TAAR7 (Sus scrofa, UniProt F1S3Q1); assay: as above
wild boar TAAR7, sequence (F1S3Q1 entry or part of it): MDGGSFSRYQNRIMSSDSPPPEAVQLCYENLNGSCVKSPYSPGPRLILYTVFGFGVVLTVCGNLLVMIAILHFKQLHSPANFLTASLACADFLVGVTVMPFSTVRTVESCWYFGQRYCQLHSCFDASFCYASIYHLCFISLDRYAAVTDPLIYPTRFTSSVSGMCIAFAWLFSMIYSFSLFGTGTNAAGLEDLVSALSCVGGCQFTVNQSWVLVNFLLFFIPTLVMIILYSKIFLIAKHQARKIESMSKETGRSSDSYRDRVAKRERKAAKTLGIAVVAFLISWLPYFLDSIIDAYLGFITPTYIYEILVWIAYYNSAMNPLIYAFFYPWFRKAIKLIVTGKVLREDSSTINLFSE
Description: as §1

## C1CCNCC1 [Piperidine, piperidine]
Mouse TAAR8a
  EC50: ~300 µM

## N=C(N)NCCCCN [Agmatine, agmatine]
Catfish TAAR13f
  EC50: 0.04 nM
Catfish TAAR13h
  EC50: 165 µM

## NCCc1c[nH]c2ccccc12 [Tryptamine, tryptamine]
Shark TARL2
  EC50: ~40 µM
TARLL1b
  EC50: ~100 µM
Mouse TAAR1
  EC50: ~28 µM
(UniProt Z9G6W3R3V9)
  EC50: 18.1 µM
Catfish TAAR13g
  EC50: ~30 µM
Coelacanth TAARC1b
  EC50: ~150 µM
Coelacanth TARL2
  EC50: ~200 µM
Spotted gar TARL1
  EC50: 3.1 µM
Zebrafish TAAR1
  EC50: ~52 µM
Zebrafish TARL1
  EC50: 0.04 µM
Mouse HTR4
  EC50: ~180 µM
TARL1
  TARL1 ligand profile: ligands include

## NCCc1ccccc1 [Phenylethylamine, phenylethylamine]
Cat TAAR4
  EC50: 30 µM and ~30 µM
Cow TAAR4
  EC50: 98.4 µM
Guinea pig TAAR4
  EC50: 150 µM and ~150 µM
Hamster TAAR4
  EC50: 300 µM and ~300 µM
Horse TAAR4
  EC50: 100 µM and ~100 µM
Zebrafish TAAR12j
  EC50: 4.8 µM
TARL1
  TARL1 ligand profile: ligands include
TARL2
  TARL2 ligand profile: cannot recognize

## NCCc1ccc(O)cc1 [Tyramine, tyramine]
Medaka TAAR21f
  EC50: 0.09 µM
Spotted gar TAAR1b
  EC50: 0.7 µM

## CN(C)C [Trimethylamine, trimethylamine]
Shark TAARS1b
  EC50: 1.4 µM
Cat TAAR5
  EC50: 6.9 µM
Sheep TAAR5
  EC50: 500 µM and ~500 µM
Cow TAAR5
  EC50: 300 µM and ~300 µM
Hamster TAAR5
  EC50: 2.3 µM

## CN1CCCCC1 [1-methylpiperidine]
Shark TAARS1b
  EC50: 17.6 µM
Mouse TAAR5
  EC50: 8.2 µM
Mouse TAAR8c
  EC50: 1.5 µM

## CN(C)C1CCCCC1 [N,N-dimethylcyclohexylamine]
Cat TAAR6b
  EC50: 101 µM
Mouse TAAR6
  EC50: ~50 µM
Mouse TAAR7d
  EC50: 107 µM
Rabbit TAAR8b
  EC50: ~50 µM
Rat TAAR6
  EC50: ~50 µM
Rat TAAR7a
  EC50: 49.5 µM
Rat TAAR8a
  EC50: 27.6 µM
Rat TAAR9
  EC50: ~30 µM
Wild boar TAAR7
  EC50: 50 µM and ~50 µM
